# Reference: patent publication US7521478B2, “Total synthesis of myriaporones” (Pharma Mar, S.A.U., priority 2002, dated 2009)
# Assays:
# Assay type in all cases: cell-based
# [1] = test system: DU-145; test: Inhibition of cell growth by colorimetric SRB assay, DU-145; conditions: Homo sapiens, DU-145, 48 hours exposure; for CC50: cell killing, read-out: LC50 (the source's name); for IC (total growth inhibition): read-out: TGI
# Source text: (§1) The finality of these assays is to interrupt the growth of a “in vitro” tumor cell culture by means a continued exhibition of the cells to the sample to be testing.
# (§2) Inhibition of Cell Growth by Colorimetric Assay.
# (§3) A colorimetric type of assay, using sulforhodamine B (SRB) reaction has been adapted for a quantitative measurement of cell growth and viability (following the technique described by P. A. Skehan, et al., J. Natl. CancerInst. 1990, 82, 1107-1112).
# (§4) This form of assay employs 96 well cell culture microplates of 9 mm diameter (T. Mosmann et al., J. of Immuological Methods 1983, 65, 55-63; G. T. Faircloth et al., J. of Tissue and Culture Methods 1988, 11, 201-205). Most of the cell lines are obtained from American Type Culture Collection (ATCC) derived from different human cancer types.
# (§5) Cells are maintained in RPMI 1640 10% FBS, supplemented with 0.1 g/L penicillin and 0.1 g/L streptomycin sulfate and then incubated at 37° C., 5% CO2 and 98% humidity. For the experiments, cells were harvested from subconfluent cultures using trypsin and resuspended in fresh medium before plating.
# (§6) Cells are seeded in 96 well microtiter plates, at 5×10^3 cells per well in aliquots of 195 μL medium, and they are allowed to attach to the plate surface by growing in drug free medium for 18 hours. Afterward, samples are added in aliquots of 5 μL in a ranging from 10 to 10^−8 μg/mL, dissolved in DMSO/EtOH/PBS (0.5:0.5:99). After 48 hours exposure, the antitumor effect are measured by the SRB methodology: cells are fixed by adding 50 μL of cold 50% (wt/vol) trichloroacetic acid (TCA) and incubated for 60 minutes at 4° C. Plates are washed with deionizer water and dried. One hundred μl of SRB solution (0.4% wt/vol in 1% acetic acid) is added to each microliter well and incubated for 10 minutes at room temperature. Unbound SRB is removed by washing with 1% acetic acid. Plates are air dried and bound stain is solubilized with Tris buffer. Optical densities are read on a automated spectrophotometric plate reader at a single wavelength of 490 nm.
# (§7) The values for mean +/−SD of data from triplicate wells are calculated. Some parameters for cellular responses can be calculated: GI=growth inhibition, TGI=total growth inhibition (cytostatic effect) and LC=cell killing (cytotoxic effect).
# [2] = test system: LNCaP; test: Inhibition of cell growth by colorimetric SRB assay, LN-caP; conditions: Homo sapiens, LN-caP, 48 hours exposure; for CC50: cell killing, read-out: LC50 (the source's name); for IC (total growth inhibition): read-out: TGI
# Source text: as §1, §2, §3, §4, §5, §6, §7
# [3] = test system: IGROV; test: Inhibition of cell growth by colorimetric SRB assay, IGROV; conditions: Homo sapiens, 48 hours exposure; for CC50: cell killing, read-out: LC50 (the source's name); for IC (total growth inhibition): read-out: TGI
# Source text: as §1, §2, §3, §4, §5, §6, §7
# [4] = test system: IGROV-ET; test: Inhibition of cell growth by colorimetric SRB assay, IGROV-ET; conditions: Homo sapiens, IGROV-ET, 48 hours exposure; for CC50: cell killing, read-out: LC50 (the source's name); for IC (total growth inhibition): read-out: TGI
# Source text: as §1, §2, §3, §4, §5, §6, §7
# [5] = test system: SK-BR-3; test: Inhibition of cell growth by colorimetric SRB assay, SK-BR-3; conditions: SK-BR-3, 48 hours exposure; for GI50 / CC50: Homo sapiens; for CC50: cell killing, read-out: LC50 (the source's name); for TGI: total growth inhibition
# Source text: as §1, §2, §3, §4, §5, §6, §7
# [6] = test system: SK-MEL-28; test: Inhibition of cell growth by colorimetric SRB assay, MEL-28; conditions: Homo sapiens, SK-MEL-28, MEL-28, 48 hours exposure; for CC50: cell killing, read-out: LC50 (the source's name); for IC (total growth inhibition): read-out: TGI
# Source text: as §1, §2, §3, §4, §5, §6, §7
# [7] = test system: A-549; test: Inhibition of cell growth by colorimetric SRB assay, A-549; conditions: Homo sapiens, A549, A-549, 48 hours exposure; for CC50: cell killing, read-out: LC50 (the source's name); for IC (total growth inhibition): read-out: TGI
# Source text: as §1, §2, §3, §4, §5, §6, §7
# [8] = test system: K-562; test: Inhibition of cell growth by colorimetric SRB assay, K-562; conditions: Homo sapiens, K562, K-562, 48 hours exposure; for CC50: cell killing, read-out: LC50 (the source's name); for IC (total growth inhibition): read-out: TGI
# Source text: as §1, §2, §3, §4, §5, §6, §7
# [9] = test system: PANC-1; test: Inhibition of cell growth by colorimetric SRB assay, PANC-1; conditions: Homo sapiens, PANC-1, 48 hours exposure; for CC50: cell killing, read-out: LC50 (the source's name); for IC (total growth inhibition): read-out: TGI
# Source text: as §1, §2, §3, §4, §5, §6, §7
# [10] = test system: HT-29; test: Inhibition of cell growth by colorimetric SRB assay, HT-29; conditions: Homo sapiens, HT-29, 48 hours exposure; for CC50: cell killing, read-out: LC50 (the source's name); for IC (total growth inhibition): read-out: TGI
# Source text: as §1, §2, §3, §4, §5, §6, §7
# [11] = test system: LoVo; test: Inhibition of cell growth by colorimetric SRB assay, LOVO; conditions: Homo sapiens, LOVO, 48 hours exposure; for LC50: cell killing, read-out: LC50; for IC (total growth inhibition): read-out: TGI
# Source text: as §1, §2, §3, §4, §5, §6, §7
# [12] = test system: LoVo-Dox; test: Inhibition of cell growth by colorimetric SRB assay, LOVO-DOX; conditions: Homo sapiens, LOVO-DOX, 48 hours exposure; for LC50 (concentration for 50% cell killing): read-out: LC50; for IC (total growth inhibition): read-out: TGI
# Source text: as §1, §2, §3, §4, §5, §6, §7
# [13] = test system: HeLa; test: Inhibition of cell growth by colorimetric SRB assay, HELA; conditions: Homo sapiens, HELA, 48 hours exposure; for CC50: cell killing, read-out: LC50 (the source's name); for IC (total growth inhibition): read-out: TGI
# Source text: as §1, §2, §3, §4, §5, §6, §7
# [14] = test system: HeLa-APL; test: Inhibition of cell growth by colorimetric SRB assay, HELA-APL; conditions: Homo sapiens, HELA-APL, 48 hours exposure; for CC50: cell killing, read-out: LC50 (the source's name)
# Source text: as §1, §2, §3, §4, §5, §6, §7
compound,measurement,setting,value
C/C=C\[C@H](C)[C@H]1O[C@@]1(C)[C@@H](O)[C@@H](CO)C(=O)[C@H](CO)[C@@H](O)CC(=O)CC [3a + 4a],GI50,[1],0.0631 µM
same,CC50,[1],2.03 µM
same,IC (total growth inhibition),[1],0.403 µM
same,GI50,[2],0.0819 µM
same,CC50,[2],5.32 µM
same,IC (total growth inhibition),[2],0.553 µM
same,GI50,[3],0.073 µM
same,CC50,[3],3.92 µM
same,IC (total growth inhibition),[3],0.376 µM
same,GI50,[4],0.1 µM
same,CC50,[4],26.8 µM
same,IC (total growth inhibition),[4],1.07 µM
same,GI50,[5],0.0303 µM
same,CC50,[5],5.34 µM
same,TGI,[5],4.75E−07 Molar
same,GI50,[6],0.0754 µM
same,CC50,[6],12 µM
same,IC (total growth inhibition),[6],0.832 µM
same,GI50,[7],0.144 µM
same,CC50,[7],15.6 µM
same,IC (total growth inhibition),[7],2.59 µM
same,GI50,[8],0.521 µM
same,CC50,[8],8.4 µM
same,IC (total growth inhibition),[8],1.46 µM
same,GI50,[9],0.0897 µM
same,CC50,[9],26.8 µM
same,IC (total growth inhibition),[9],2.95 µM
same,GI50,[10],0.0601 µM
same,CC50,[10],26.8 µM
same,IC (total growth inhibition),[10],1.18 µM
same,GI50,[11],0.0822 µM
same,LC50,[11],17.7 µM
same,IC (total growth inhibition),[11],1.35 µM
same,GI50,[12],0.152 µM
same,LC50 (concentration for 50% cell killing),[12],26.8 µM
same,IC (total growth inhibition),[12],1.36 µM
same,GI50,[13],0.0728 µM
same,CC50,[13],7.14 µM
same,IC (total growth inhibition),[13],0.55 µM
same,CC50,[14],14.7 µM
same,GI50,[14]; read-out: GI50,0.0733 µM
same,IC (total growth inhibition),"[14]; total growth inhibition, read-out: TGI",0.983 µM
C/C=C\[C@H](C)[C@H]1OC1(C)[C@@H](O[Si](C)(C)C(C)(C)C)[C@@H](CO[Si](C)(C)C(C)(C)C)C(=O)[C@H](CO[Si](C)(C)C(C)(C)C)[C@H](CC(=O)CC)O[Si](C)(C)C(C)(C)C (stereo partly shown) [Compound 19a],GI50,[1],12.1 µM
same,CC50,[1],12.1 µM
same,IC (total growth inhibition),[1],12.1 µM
same,GI50,[2],12.1 µM
same,CC50,[2],12.1 µM
same,IC (total growth inhibition),[2],12.1 µM
same,GI50,[3],12.1 µM
same,CC50,[3],12.1 µM
same,IC (total growth inhibition),[3],12.1 µM
same,GI50,[4],12.1 µM
same,CC50,[4],12.1 µM
same,IC (total growth inhibition),[4],12.1 µM
same,GI50,[5],12.1 µM
same,CC50,[5],12.1 µM
same,TGI,[5],1.21E−05 Molar
same,GI50,[6],12.1 µM
same,CC50,[6],12.1 µM
same,IC (total growth inhibition),[6],12.1 µM
same,GI50,[7],12.1 µM
same,CC50,[7],12.1 µM
same,IC (total growth inhibition),[7],12.1 µM
same,GI50,[8],12.1 µM
same,CC50,[8],12.1 µM
same,IC (total growth inhibition),[8],12.1 µM
same,GI50,[9],12.1 µM
same,CC50,[9],12.1 µM
same,IC (total growth inhibition),[9],12.1 µM
same,GI50,[10],12.1 µM
same,CC50,[10],12.1 µM
same,IC (total growth inhibition),[10],12.1 µM
same,GI50,[11],12.1 µM
same,LC50,[11],12.1 µM
same,IC (total growth inhibition),[11],12.1 µM
same,GI50,[12],12.1 µM
same,LC50 (concentration for 50% cell killing),[12],12.1 µM
same,IC (total growth inhibition),[12],12.1 µM
same,GI50,[13],12.1 µM
same,CC50,[13],12.1 µM
same,IC (total growth inhibition),[13],12.1 µM
same,CC50,[14],12.1 µM
